In patent US8455550B2, “Derivatives of aminocyclobutane or aminocyclobutene, their method of preparation and their use as medical products” (Pierre Fabre Medicament, priority 2009, dated 2013):

Key:
Male Sprague Dawley rats [1] = experiment: Forced swimming test, antidepressant activity; format: in vivo, rat; settings: 40 mg/Kg ip, single administration 30 min before test; 5 min observation; FIG. 1
Procedure: The antidepressant activity of the compounds of the invention was evidenced by the forced swimming test in rats (Eur. J. Pharmacol. 1978, 47, 379). This model is widely used since it is predictive of antidepressant activity in man.
The rats (Male Sprague Dawley rats (ICO: OFA SD [IOPS], Iffa Credo, France), are placed in a cylinder (height 45 cm and diameter 20 cm) filled with water at 25° C.±0.5 up to a height of 17 cm. This height allows the rats to swim or float without their paws touching the bottom of the cylinder. 24 h before the test day, the rats are placed in the cylinder for 15 min, after which time they no longer attempt to escape and remain immobile. On the test day, the animals are put back in the cylinder and the duration of immobility of the animal is measured and monitored using audiovisual recording for 5 min. The products of the invention are administered via ip route 30 min before the test. A rat is considered to be immobile when it allows itself to float and only makes small movements to remain on the surface.

Male Sprague Dawley rats [2] = experiment: Formaldehyde test, analgesic activity, late phase; format: in vivo, rat; settings: for Paw licking Score observed at 40 mg/Kg / Paw lifting Score observed at 40 mg/Kg: 40 mg/Kg ip 15 min before formaldehyde 2.5%, late phase 22.5-27.5 min, maximum score 10
Procedure: The analgesic activity of the formula (1) compounds and of milnacipran, chosen as reference compound, was determined using a conventional pain module in which formaldehyde is injected to cause a painful sensation in animals (Eur. J. Pharmacol. 2001, 421, 109). The rats (Male Sprague Dawley rats (ICO: OFA SD [IOPS], Iffa Credo, France) are placed in observation boxes in Plexiglas above an angled mirror to facilitate observation of their hind paws. After thirty minutes habituation, the animals are given an injection of formaldehyde diluted to 2.5% on the plantar surface of the right hind paw. The injection of formaldehyde produces behavioural responses which occur in two phases: • an early phase, 0 to 5 min after injection of formaldehyde, corresponding to stimulation of the receptors specialized in the transmission of nociceptive stimuli. • a late phase which occurs between 20 and 30 min after injection. This phase corresponds to the stimulation of receptors by inflammatory mediators and/or to hyperexcitability of the dorsal horn induced during the first phase. This later phase therefore involves central sensitization and causes pain more representative of neuropathic pain compared with the pain which occurs during the first phase. On this account, only the results obtained in this later phase are taken into consideration in the present application. To study the compounds of the invention, we selected two expressions of painful behaviour (paw licking, lifting of injected paw) and chose as observation period the period which corresponds to the late phase (i.e. 22.5-27.5 min). During this 5 min phase, the animals are observed every 30 s and the following behaviours are recorded: licking or non-licking of the injected hind paw and lifting or not of the injected hind paw. Ten observations give a maximum score of 10 for each parameter. The products of the invention are given via intra-peritoneal route 15 min before the injection of formaldehyde.

adult rat = experiment: Ultrasonic vocalizations (USV) test, antistress/anxiolytic activity; format: in vivo; settings: 22 kHz vocalizations
Procedure: Antistress/anxiolytic activity was determined on a conventional model using ultrasonic vocalizations (USVs) emitted by an adult rat when subjected to stress (Eur. J. Pharmacol. 2003, 463, 133).
The experiments were conducted in standard operative cages (250×320×250 mm) insulated from noise and light. The floor of the cages is covered with a grid in stainless steel and connected to an electric shock generator delivering a fixed intensity of 0.4 mA. The device is provided on one of its walls with a light source (2 lux). The ULTRAVOX system (Noldus, Wageningen, Pays Bas) is used to record ultrasonic vocalizations at a frequency defined by an ultrasound detector, an audio-filter box and acquisition software. For this experiment, the capture frequency was set at 22 kHz. The software allows the recording of all vocalizations of 22 kHz lasting a time of more 100 ms emitted by the animals. The test starts with a habituation session of 11 min 25 s, during which the animals are individually placed in the operative device without being subjected to conditioning (neither light nor electric shock).
During a second phase, the animals are subjected to a conditioning phase of 3 sessions given over 3 consecutive days. […]

Compound	Duration of immobility (effect in words) (Male Sprague Dawley rats [1])	Paw licking Score observed at 40 mg/Kg (Male Sprague Dawley rats [2])	Paw lifting Score observed at 40 mg/Kg (Male Sprague Dawley rats [2])	Duration of USVs minimum significant dose (MSD) (adult rat)	Paw lifting and paw licking in late phase (effect in words) (Male Sprague Dawley rats [2]; ip, late phase of formaldehyde test)
CCN(CC)C(=O)[C@@]1(c2ccccc2)C[C@H]1CN (racemic) [milnacipran, cis-(±)-N,N-diethyl-(1-phenyl-2-aminomethyl)-cyclopropanecarboxamide, reference compound]	no effect	2.0 ± 0.8	6.3 ± 1.4	10 mg/kg	
(±)-cis-N,N-diethyl (1-phenyl-2-aminomethyl)-cyclobutanecarboxamide [Compound 1a]	significantly decreasing the duration of immobility	1.0 ± 0.4	3.7 ± 1.1	10 mg/kg	significantly reduces both paw lifting and paw licking
